≈ marks a conversion by molar mass, not a printed value. Where two headings read alike, the source gives them in different places.
Tests used:
[1] = test system: nosocomial pneumonia suspected or confirmed to be caused by Gram-positive pathogens; assay: Phase 2 study in nosocomial pneumonia, iclaprim versus vancomycin; type: in vivo, human
Excerpt: This MIC effect of surfactant on daptomycin activity has been reported to be mediated by binding of surfactant components to specific structures present on antibiotics, such as the lipophilic side-chain of daptomycin (Silverman et al., 2005). […] Collectively, the current in vitro study and a previous Phase 2 study support that iclaprim could be a potential treatment for pneumonia, including nosocomial pneumonia caused by susceptible and multidrug resistant Gram-positive bacteria.

[2] = test system: common Gram-positive and Gram-negative respiratory bacteria; assay: pulmonary surfactant interaction, overall effect of BPS on MIC and MICRZ; type: cell-based; details: 2.5% (v/v) BPS; all tested strains or isolates
Description: Antibacterial susceptibility testing was measured by JMI Labs (North Liberty, Iowa, USA). […] These clinical isolates were collected from US (n=4), Mexico (n=2), and Italy (n=1). Susceptibility testing was performed by broth microdilution in accordance with the Clinical and Laboratory and Standards Institute (CLSI) guidelines M07-A10 (2015) and the standard operating procedures at JMI laboratories. Minimum inhibitory concentrations (MICS) were based on CLSI criteria (2015). There are no published breakpoints for iclaprim. E. coli, K. pneumoniae, M. catarrhalis, E. faecalis, and S. aureus were tested in cation-adjusted Mueller-Hinton broth (CA-MHB). […]
Because bovine pulmonary surfactant can introduce cloudiness to the MIC testing media, antimicrobial growth inhibition was also evaluated using the colorimetric metabolic indicator resazurin (Camlab Ltd., Cambridge, UK). […] Growth inhibition was then evaluated as a visible color change from blue (no growth) to pink (robust growth) and recorded as a MIC1z value.
(§1) The MICs of iclaprim, levofloxacin, and daptomycin were determined against Gram-positive and Gram-negative isolates.
A new vial of bovine pulmonary surfactant (BPS; Survanta®; Abbott Laboratories, Columbus, Ohio) was utilized for each independent experiment. […] MICs of daptomycin were determined in CAMHB with the Ca^2+ content adjusted to 50 mg/L.

[3] = test system: QTc interval; details: human, in vivo
Description: A second single-dose ECG study was conducted on healthy human volunteers using weight-based doses of 0.4 mg/kg and 0.8 mg/kg iclaprim base infused over 30 minutes and 1.6 mg/kg infused over 60 minutes.

[4] = test system: S. aureus; details: worldwide surveillance studies; cited from earlier work
[5] = target: L-type calcium channel (Homo sapiens, UniProt Q13936); assay: L-type calcium channel inhibition; type: cell-based
L-type calcium channel, sequence (Q13936 whole entry): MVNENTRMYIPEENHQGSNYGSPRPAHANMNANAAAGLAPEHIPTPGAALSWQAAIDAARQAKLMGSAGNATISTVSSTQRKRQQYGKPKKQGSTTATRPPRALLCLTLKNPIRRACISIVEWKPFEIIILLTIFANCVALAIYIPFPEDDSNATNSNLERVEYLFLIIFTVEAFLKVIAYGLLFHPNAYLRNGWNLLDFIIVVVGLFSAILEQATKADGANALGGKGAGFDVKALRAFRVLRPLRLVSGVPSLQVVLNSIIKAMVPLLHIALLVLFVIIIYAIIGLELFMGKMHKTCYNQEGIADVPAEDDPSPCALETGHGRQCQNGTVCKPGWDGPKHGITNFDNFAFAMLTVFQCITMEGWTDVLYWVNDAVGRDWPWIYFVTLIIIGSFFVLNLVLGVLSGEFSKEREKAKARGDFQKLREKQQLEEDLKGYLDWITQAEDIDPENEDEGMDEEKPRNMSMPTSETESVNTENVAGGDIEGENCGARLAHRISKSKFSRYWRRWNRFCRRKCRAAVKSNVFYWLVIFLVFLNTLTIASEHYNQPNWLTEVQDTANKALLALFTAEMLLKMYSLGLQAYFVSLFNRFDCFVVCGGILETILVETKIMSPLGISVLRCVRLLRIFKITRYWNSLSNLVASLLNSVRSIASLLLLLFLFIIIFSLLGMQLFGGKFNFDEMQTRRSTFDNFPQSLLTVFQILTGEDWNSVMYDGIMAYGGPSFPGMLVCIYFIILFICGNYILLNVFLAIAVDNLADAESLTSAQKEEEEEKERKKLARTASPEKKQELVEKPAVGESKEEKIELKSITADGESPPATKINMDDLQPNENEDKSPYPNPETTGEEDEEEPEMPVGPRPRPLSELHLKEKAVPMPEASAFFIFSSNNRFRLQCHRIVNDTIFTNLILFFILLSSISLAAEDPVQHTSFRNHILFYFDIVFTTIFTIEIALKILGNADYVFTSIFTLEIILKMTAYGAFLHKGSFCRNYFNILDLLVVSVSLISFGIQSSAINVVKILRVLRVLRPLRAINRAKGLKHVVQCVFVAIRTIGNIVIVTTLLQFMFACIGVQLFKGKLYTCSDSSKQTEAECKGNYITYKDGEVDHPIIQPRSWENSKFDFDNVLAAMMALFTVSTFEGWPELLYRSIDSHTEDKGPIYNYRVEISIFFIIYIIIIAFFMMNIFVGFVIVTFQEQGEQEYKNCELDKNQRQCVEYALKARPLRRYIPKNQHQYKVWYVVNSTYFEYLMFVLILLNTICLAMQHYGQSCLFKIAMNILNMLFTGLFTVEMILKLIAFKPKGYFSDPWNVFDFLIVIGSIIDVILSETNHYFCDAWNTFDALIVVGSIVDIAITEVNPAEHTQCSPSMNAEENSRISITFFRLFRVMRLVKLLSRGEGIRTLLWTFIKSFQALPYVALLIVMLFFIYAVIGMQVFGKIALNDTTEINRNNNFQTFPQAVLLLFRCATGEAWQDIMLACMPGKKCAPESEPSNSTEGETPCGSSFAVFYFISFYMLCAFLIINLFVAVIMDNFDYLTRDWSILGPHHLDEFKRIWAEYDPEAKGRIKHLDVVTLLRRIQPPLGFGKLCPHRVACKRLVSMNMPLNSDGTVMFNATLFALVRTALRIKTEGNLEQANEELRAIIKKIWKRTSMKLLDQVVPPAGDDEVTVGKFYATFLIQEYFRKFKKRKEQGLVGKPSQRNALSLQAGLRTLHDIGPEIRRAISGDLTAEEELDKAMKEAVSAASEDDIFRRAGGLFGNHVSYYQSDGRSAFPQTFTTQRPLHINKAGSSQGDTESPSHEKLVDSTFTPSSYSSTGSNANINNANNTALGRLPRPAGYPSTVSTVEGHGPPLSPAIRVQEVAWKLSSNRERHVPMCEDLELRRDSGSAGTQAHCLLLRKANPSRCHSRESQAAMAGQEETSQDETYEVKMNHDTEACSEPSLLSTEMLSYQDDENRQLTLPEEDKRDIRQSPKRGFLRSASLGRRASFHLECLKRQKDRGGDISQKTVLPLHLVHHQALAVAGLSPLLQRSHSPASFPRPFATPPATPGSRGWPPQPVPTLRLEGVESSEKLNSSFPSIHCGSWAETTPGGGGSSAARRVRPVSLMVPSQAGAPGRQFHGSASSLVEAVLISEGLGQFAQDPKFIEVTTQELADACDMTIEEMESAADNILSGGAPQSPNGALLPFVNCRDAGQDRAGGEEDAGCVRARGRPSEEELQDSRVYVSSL

[6] = 13-week toxicology study in the marmoset, AUC at NOAEL; type: in vivo; details: marmoset females
[7] = PK of IV iclaprim in moderate hepatic impairment; type: in vivo, human; details: moderate hepatic impairment (Child-Pugh grade B)
Description: For example, the PK profile of 0.8 mg/kg iclaprim administered by IV was investigated in 8 subjects with mild to moderate obesity (body mass index or “BMI” 30-40) and in 8 subjects with severe obesity (BMI>40). […] Linear regression analysis indicated a strong linear relationship between AUC (and Cmax) and BMI. Thus it was clear that the body composition of the subject affected the pharmacokinetics of IV administered iclaprim, with a greater percentage of body fat causing an increase in AUC and Cmax. […] Thus there is a risk of overdosing subjects with moderate hepatic impairment, which can be mitigated by reducing the IV iclaprim dose by about 50%.

[8] = test system: S. aureus Clinical Isolate 825189; assay: MIC with/without bovine pulmonary surfactant; type: cell-based; details: Staphylococcus aureus
Description: Antibacterial susceptibility testing was measured by JMI Labs (North Liberty, Iowa, USA). […] These clinical isolates were collected from US (n=4), Mexico (n=2), and Italy (n=1). Susceptibility testing was performed by broth microdilution in accordance with the Clinical and Laboratory and Standards Institute (CLSI) guidelines M07-A10 (2015) and the standard operating procedures at JMI laboratories. Minimum inhibitory concentrations (MICS) were based on CLSI criteria (2015). There are no published breakpoints for iclaprim. E. coli, K. pneumoniae, M. catarrhalis, E. faecalis, and S. aureus were tested in cation-adjusted Mueller-Hinton broth (CA-MHB). S. pneumoniae were tested in CA-MHB supplemented with 2.5-5% lysed horse blood, and H. influenza were tested in Haemophilus test medium. Quality control and interpretation of results were performed in accordance with CLSI M100-S26 (2016) methods. QC ranges for iclaprim were those approved by CLSI and published in M100-S26 (2016). Iclaprim and comparator antibiotic MIC results were within the CLSI published ranges against E. coli ATCC 25922, E. faecalis ATCC 29212, E. faecalis ATCC 33186, H. influenzae ATCC 49247, K. pneumoniae ATCC 700603 (ESBL phenotype), S. aureus ATCC 29213, and S. pneumoniae ATCC 49619. Isolates were tested with MIC panels (ThermoFisher Scientific, Cleveland, Ohio, USA) of comparator antibiotics (daptomycin and levofloxacin).
Because bovine pulmonary surfactant can introduce cloudiness to the MIC testing media, antimicrobial growth inhibition was also evaluated using the colorimetric metabolic indicator resazurin (Camlab Ltd., Cambridge, UK). […] S. pneumoniae panels were omitted from resazurin analysis because the color change was obscured by the lysed horse blood present in the test medium. Growth inhibition was then evaluated as a visible color change from blue (no growth) to pink (robust growth) and recorded as a MIC1z value.
as §1
A new vial of bovine pulmonary surfactant (BPS; Survanta®; Abbott Laboratories, Columbus, Ohio) was utilized for each independent experiment. Each vial was mixed thoroughly and a 100 μL aliquot was spread on an agar plate, which was incubated overnight to confirm sterility. […] The concentration of surfactant was expressed in terms of percent volume of Survanta® suspension, which consisted of phospholipid (25 mg/mL) and surfactant proteins (<1 mg/mL) in 0.9% sodium chloride solution (Goerke, 1998). MICs of daptomycin were determined in CAMHB with the Ca^2+ content adjusted to 50 mg/L.

[9] = test system: isolated rabbit Purkinje fibers
[10] = test system: S. aureus strain AH1252; assay: neutropenic rat lung infection model; type: in vivo, Staphylococcus aureus
Description: S. aureus strain AH1252, a thymidine knockout of the MRSA wild type AW6 strain, was utilized for this study. The bacterial strain was diluted in a 2% alginate buffer, which was added dropwise in a ratio of 1:5 into […] to form alginate beads. The alginate beads reduce the efficacy of bacterial clearance similar to that seen in the cystic fibrosis population. A 5.25×10^4 bacterial inoculum was administered to groups of 9 rats, intratracheally, with prepared alginate bacteria suspensions, under isoflurane anesthesia. […] Twelve hours after the last treatment, rats were euthanized and lungs collected for CFU determination.

[11] = test system: QTc interval; assay: single-dose ECG study in healthy human volunteers (1.6 and 3.2 mg/kg); type: in vivo; details: 3.2 mg/kg infused over 30 minutes
Description: Based on this, a single-dose ECG-study was conducted in healthy human volunteers, where 1.6 mg/kg and 3.2 mg/kg iclaprim was infused over 30 minutes. […] Maximal increases coincided with Cmax levels and were rapidly reversible. Weight-based dosing with 1.6 mg/kg was thus assessed as acceptable for clinical purposes, whereas weight-based dosing at 3.2 mg/kg was associated with relevant QTc prolongations (>60 msec) and nonspecific T-wave alterations, and was not used for further clinical studies.

[12] = exposure to iclaprim in Phase I studies; details: human, in vivo

COc1cc(Cc2cnc(N)nc2N)c2c(c1OC)OC(C1CC1)C=C2 (racemic) [Iclaprim]
cure rate, intent-to-treat population ([1]; iclaprim 0.8 mg/kg IV q12h, test of cure visit (17 of 23)): 73.9%
cure rate, intent-to-treat population ([1]; iclaprim 1.6 mg/kg IV q8h, test of cure visit (15 of 24)): 62.5%
death rate within 28 days of the start of treatment ([1]; iclaprim q8h (3 of 24)): 12.5%
death rate within 28 days of the start of treatment ([1]; iclaprim q12h (2 of 23)): 8.7%
effect of BPS on MIC and MICRZ values [2]: minimal or no effect
post-infusion QTcF prolongation from baseline (no subject above) [3]: ≤ 60 ms
MIC90 [4]: 0.12 µg/mL (≈ 0.339 µM)
IC50 [5]: 46 µM
AUC achieved at the NOAEL [6]: 26,600 hr×ng/mL
increase in AUC [7]: 2.5 fold
increase in Cmax [7]: 1.4 fold
MIC ([8]; 2.5% v/v BPS, read-out: MIC, CLSI: +BPS): 0.12 µg/mL (≈ 0.339 µM)
MIC ([8]; 2.5% v/v BPS, read-out: MIC, Resazurin: +BPS): 0.12 µg/mL (≈ 0.339 µM)
MIC ([8]; no BPS, read-out: MIC, CLSI): 0.06 µg/mL (≈ 0.169 µM)
MIC ([8]; no BPS, read-out: MIC, Resazurin): 0.06 µg/mL (≈ 0.169 µM)
concentration at which action potential duration was increased [9]: above 1 μM
72 hour lungs log10CFU/Lung (CFU/gram of lung) ([10]; 80 mg/kg SC/BID): 3.34
Change in CFUs from 2 hr. infection controls ([10]; 80 mg/kg SC/BID): 0.22 log 10 CFU
Change in CFUs from 72 hr. infection controls ([10]; 80 mg/kg SC/BID): −5.34 log 10 CFU
Survival >60 hrs ([10]; 80 mg/kg SC/BID (160 mg/kg/day) 3 days): 9/9
CFU reduction from the 72 hour infection controls ([10]; iclaprim 80 mg/kg SC/BID): 5.34 log 10 CFU
QTc prolongation [11]: > 60 ms
AUC ([12]; 1 mg/kg): 2,575 ± 757 hr × ng/mL
AUC ([12]; 4 mg/kg): 8,894 [29.0] hr × ng/mL
Cmax ([12]; 4 mg/kg): 2,851 [19.2] ng/mL

Reference: patent US20190117653A1, “SYSTEMS AND METHODS FOR TREATING BACTERIAL INFECTION” (priority 2016, published 2019)
